Consider 13 substances from patent publication US9441024.

The conditions of the series: disulfide bond; 38-membered ring.
For S1-3C(asialo)-SRIF28, the ring closure, yield after HPLC amounted to 52%.

The substance S1C(disialo).N19C(GlcNAc)-SRIF28 registered a ring closure, yield after HPLC of 59%.

C(disialo)-C12 linker-SRIF14 yielded a ring closure, yield after HPLC of 61%.

Consider “C(disialo(aminoethylamide))/S1C(disialo)-SRIF28”, for which the ring closure, yield after HPLC was determined as 58%.

Turning to S1-5C(disialo)-SRIF28, the ring closure, yield after HPLC is 76%.

Substance S1C(disialo(aminoethylamide))-SRIF28 returned a ring closure, yield after HPLC of 73%.

On to S1C(disialo (hexadecylamide))-SRIF28, for which the ring closure, yield after HPLC was found to be 89%.

S1C(diGlcNAc)-SRIF28: the ring closure, yield after HPLC stood at 60%.

As for S1-2C(asialo)-SRIF28, the ring closure, yield after HPLC was 55%.

In the case of S1-4C(disialo)-SRIF28, the ring closure, yield after HPLC was 57%.

Turning to S1C(disialo)-SRIF28, the ring closure, yield after HPLC was 59%.

As to S1-2C(disialo)-SRIF28, the ring closure, yield after HPLC is 58%.

For the substance S1-3C(disialo)-SRIF28, the ring closure, yield after HPLC amounted to 63%.
